From US5776944A, “7-(4-aminomethyl-3-methyloxyiminopyrroplidin-1-yl)-1-cyclopropyl-6-flu oro-4-oxo-1,4-dihydro-1,8-naphthyridine-3-carboxylic acid and the process for the preparation thereof” (LG Chemical Ltd., priority 1994, dated 1998)
Converted amounts (≈) assume the structure as drawn. Read-outs that look alike come from different tables or passages of the source.

How the values were obtained:
[1] = Moisture content according to hydration number; format: physicochemical; details: actual moisture content, methanesulfonate hydrates
Description: The moisture content of the hydrate varies with the hydration number (n) of the hydrated molecule. Since the molecular weight of 7-(4-amino-methyl-3-methyloxylminopyrrolidin-1-yl)-1-cyclopropyl-6-fluoro- 4-oxo-1,4-dihydro-1,8-naphthyridine-3-carboxylic acid methanesulfonate is 485.5, the moisture content of the hydrate for n equal to 1, 1.5, 2, 2.5, 3, 3.5 or 4 is calculated to be 3.6%, […], 6.9%, 8.5%, 10.0%, 11.5% or 12.9%, respectively. However, the actual moisture content may differ from the calculated moisture content depending on differences in recrystallization conditions, drying conditions, etc.

[2] = Equilibrium moisture content determination of hydrates; format: physicochemical
Description: Six saturated aqueous salt solutions were introduced into each desiccator to control the inner relative humidity to a specific value as represented in the following Table 28. Then, equilibrium moisture contents of 3 hydrate and 1.5 hydrate prepared in Examples 205 and 206, respectively, were determined at several relative humidities.
Specifically, 100 mg of the sample was spread on a preweighed Petri dish and the total weight was accurately measured, then three of the sample were placed in each desiccator of Table 28. The desiccators were allowed to stand at normal temperature for 7 days and then the sample was taken to be weighed. After 13 days had passed, one of the three samples inside each desiccator was taken and the moisture content of each was measured by the thermogravimetric analysis described in Test Example 2. Equilibrium moisture content at each relative humidity is represented in FIG. 3 (3 hydrate), and FIG. 4 (1.5 hydrate). […] Both hydrates are stable since they keep a constant equilibrium moisture content regardless of the relative humidity change.

[3] = Chemical stability under heating; details: for thermal stability: hydrate
Description: The anhydride and each of the hydrates was introduced into a glass vial and maintained at 70° C.

[4] = system: Escherichia coli TEM3 3455E; assay: In vitro antibacterial activity (MIC, agar medium dilution), Biological Example 4; format: cell-based; details: TEM33455E, 18 h
[5] = system: Pseudomonas aeruginosa 10145; assay: as above; format: cell-based; details: Pseudomonas aeruginosa, 10145, 18 h, read-out: Minimum Inhibitory Concentration: MIC
[6] = system: Staphylococcus epidermidis 887E; assay: as above; format: cell-based; details: 18 h, Staphylococcus epidermidis 887E, Table 31, read-out: Minimum Inhibitory Concentration: MIC
[7] = system: Pseudomonas aeruginosa 6065Y; assay: as above; format: cell-based; details: 18 h, Table 31, read-out: Minimum Inhibitory Concentration: MIC
Description: (§1) In order to determine the antibacterial activitiers of the E- and Z-isomner of the compound 180 which were separated in Example 203, and of 7- (4-aminomethyl-3-methyloxylminopyrrolidin-1-yl)-1-cyclopropyl-6-fluoro-4-oxo-1,4-dihydro-1,8-naphthyridine-3-carboxylic acid methanesulfonate prepared in Example 204, in vitro antibacterial activities of them were measured using agar medium dilution method. The results were as described in the following Tables 31 and 32.

Seratis marsecence 1826E = assay: as above; format: cell-based; details: for MIC: 18 h, Table 31, read-out: Minimum Inhibitory Concentration: MIC
Description: as §1

[8] = system: Streptococcus faecalis 29212; assay: as above; format: cell-based; details: Enterococcus faecalis, 29212, 18 h, Streptococcus faecalis 29212, Table 31; read-out: Minimum Inhibitory Concentration: MIC
[9] = system: Klebsiella aerogenes 1082E; assay: as above; format: cell-based; details: 18 h, Table 31, read-out: Minimum Inhibitory Concentration: MIC
[10] = system: Citrobacter diversus 2046E; assay: as above; format: cell-based; details: Citrobacter koseri, 18 h, Table 31, read-out: Minimum Inhibitory Concentration: MIC
[11] = system: Escherichia coli TEM9 2639E; assay: as above; format: cell-based; details: TEM92639E, 18 h, read-out: Minimum Inhibitory Concentration: MIC
Staphylococcus aureus 77 = assay: as above; format: cell-based; details: 18 h; Staphylococcus aureus 77, Table 31; read-out: Minimum Inhibitory Concentration: MIC
Escherichia coli 3190Y = assay: as above; format: cell-based; details: 18 h, Table 31, read-out: Minimum Inhibitory Concentration: MIC
[12] = system: Staphylococcus epidermidis 178; assay: as above; format: cell-based; details: 18 h; Staphylococcus epidermidis 178, Table 31; read-out: Minimum Inhibitory Concentration: MIC
[13] = system: Salmonella thypimurium 14028; assay: as above; format: cell-based; details: 18 h; Salmonella thypimurium 14028, Table 31; read-out: Minimum Inhibitory Concentration: MIC
[14] = system: Acinetobacter calcoaceticus 15473; assay: as above; format: cell-based; details: 18 h; Acinetobacter calcoaceticus 15473, Table 31; read-out: Minimum Inhibitory Concentration: MIC
Micrococcus luteus 9341 = assay: as above; format: cell-based; details: 18 h; Micrococcus luteus 9341, Table 31; read-out: Minimum Inhibitory Concentration: MIC
[15] = system: Staphylococcus aureus giorgio; assay: as above; format: cell-based; details: 18 h, Table 31, read-out: Minimum Inhibitory Concentration: MIC
[16] = system: Staphylococcus aureus 6538p; assay: as above; format: cell-based; details: 18 h, Table 31, read-out: Minimum Inhibitory Concentration: MIC
Escherichia coli 10536 = assay: as above; format: cell-based; details: Escherichia coli, 10536, 18 h, Escherichia coli 10536, Table 31; read-out: Minimum Inhibitory Concentration: MIC
Bacillus subtilis 6633 = assay: as above; format: cell-based; details: 18 h; Bacillus subtilis 6633, Table 31; read-out: Minimum Inhibitory Concentration: MIC
Enterobacter cloacae P99 = assay: microbe, parasite or virus in culture; format: cell-based; details: P99, 18 h, read-out: Minimum Inhibitory Concentration: MIC
[17] = system: Staphylococcus aureus 241; assay: In vitro antibacterial activity (MIC, agar medium dilution), Biological Example 4; format: cell-based; details: Staphylococcus aureus, 241, 18 h, Staphylococcus aureus 241, Table 31; read-out: Minimum Inhibitory Concentration: MIC
Escherichia coli 851E = assay: as above; format: cell-based; details: 18 h, Table 31, read-out: Minimum Inhibitory Concentration: MIC
[18] = system: Pseudomonas aeruginosa 1912E; assay: as above; format: cell-based; details: 18 h, Table 31, read-out: Minimum Inhibitory Concentration: MIC
[19] = system: Enterobacter cloacae 1194E; assay: microbe, parasite or virus in culture; format: cell-based; details: 18 h, read-out: Minimum Inhibitory Concentration: MIC
[20] = system: Escherichia coli TEM5 3739E; assay: In vitro antibacterial activity (MIC, agar medium dilution), Biological Example 4; format: cell-based; details: TEM53739E, 18 h, read-out: Minimum Inhibitory Concentration: MIC
Proteus vulgaris 6059 = assay: as above; format: cell-based; details: 18 h; Proteus vulgaris 6059, Table 31; read-out: Minimum Inhibitory Concentration: MIC
[21] = system: Klebsiella aerogenes 1976E; assay: as above; format: cell-based; details: 18 h, Table 31, read-out: Minimum Inhibitory Concentration: MIC
[22] = phosphate buffered solution
physchem = details: phosphate buffered solution
test strains = assay: In vitro antibacterial activity, overall finding, Biological Example 4; format: cell-based; details: Tables 31 and 32
Description: as §1

CON=C1CN(c2nc3c(cc2F)c(=O)c(C(=O)O)cn3C2CC2)CC1CN (stereo not shown) [1 hydrate, 7-(4-aminomethyl-3-methyloxylminopyrrolidin-1-yl)-1-cyclopropyl-6-fluoro-4-oxo-1,4-dihydro-1,8-naphthyridine-3-carboxylic acid methanesulfonate]
Moisture Content [1]: 2-4%

CON=C1CN(c2nc3c(cc2F)c(=O)c(C(=O)O)cn3C2CC2)CC1CN (stereo not shown) [1.5 hydrate, 7-(4-aminomethyl-3-methyloxyiminopyrrolidin-1-yl)-1-cyclopropyl-6-fluoro-4-oxo-1,4-dihydro-1,8-naphthyridine-3-carboxylic acid methanesulfonate·1.5 hydrate]
stability of hydrate towards relative humidity change [2]: stable
equilibrium moisture content ([2]; relative humidity 23 to 64%): around 5%
thermal stability compared with the anhydride ([3]; 70° C., Table 29): the same degree of thermal stability as the anhydride
thermal stability ([3]; 20160 min): 95.80%
thermal stability ([3]; 40320 min): 96.17%
thermal stability [3]: 100%
remaining at 168 h ([3]; thermal stability, 1 week, 70° C.): 97.2%
remaining at 504 h ([3]; thermal stability, 3 weeks, 70° C.): 97.2%
Moisture Content ([1]; hydrate): 4-6%

CON=C1CN(c2nc3c(cc2F)c(=O)c(C(=O)O)cn3C2CC2)CC1CN (stereo not shown) [2 hydrate, 7-(4-aminomethyl-3-methyloxylminopyrrolidin-1-yl)-1-cyclopropyl-6-fluoro-4-oxo-1,4-dihydro-1,8-naphthyridine-3-carboxylic acid methanesulfonate]
Moisture Content [1]: 6-8%

CON=C1CN(c2nc3c(cc2F)c(=O)c(C(=O)O)cn3C2CC2)CC1CN (stereo not shown) [2.5 hydrate, 7-(4-aminomethyl-3-methyloxylminopyrrolidin-1-yl)-1-cyclopropyl-6-fluoro-4-oxo-1,4-dihydro-1,8-naphthyridine-3-carboxylic acid methanesulfonate]
Moisture Content [1]: 8-9%

CON=C1CN(c2nc3c(cc2F)c(=O)c(C(=O)O)cn3C2CC2)CC1CN (stereo not shown) [3.5 hydrate, 7-(4-aminomethyl-3-methyloxylminopyrrolidin-1-yl)-1-cyclopropyl-6-fluoro-4-oxo-1,4-dihydro-1,8-naphthyridine-3-carboxylic acid methanesulfonate]
Moisture Content [1]: 11-12%

CON=C1CN(c2nc3c(cc2F)c(=O)c(C(=O)O)cn3C2CC2)CC1CN (stereo not shown) [4 hydrate, 7-(4-aminomethyl-3-methyloxylminopyrrolidin-1-yl)-1-cyclopropyl-6-fluoro-4-oxo-1,4-dihydro-1,8-naphthyridine-3-carboxylic acid methanesulfonate]
Moisture Content [1]: 12-13%

O=C(O)c1cn(C2CC2)c2cc(N3CCNCC3)c(F)cc2c1=O [Ciprofloxacin, ciprofloxacin, reference compound]
MIC ([4]; read-out: Minimum Inhibitory Concentration: MIC, Escherichia coli TEM3 3455E, Table 32, ratio of weight): 0.5 µg/mL
MIC ([5]; Pseudomonas aeruginosa 10145, Table 32, ratio of weight): 0.5 µg/mL
MIC [6]: 0.063 µg/mL (≈ 0.19 µM)
MIC [7]: 4 µg/mL (≈ 12.1 µM)
MIC (Seratis marsecence 1826E): 0.063 µg/mL (≈ 0.19 µM)
Minimum Inhibitory Concentration: MIC (Seratis marsecence 1826E; Table 32, ratio of weight): 0.063 µg/mL
MIC [8]: 1 µg/mL (≈ 3.02 µM)

CO/N=C1/CN(c2nc3c(cc2F)c(=O)c(C(=O)O)cn3C2CC2)CC1CN (stereo not drawn) [E-isomer]
MIC [9]: 0.13 µg/mL (≈ 0.334 µM)
MIC [10]: 0.13 µg/mL (≈ 0.334 µM)
MIC [11]: 0.13 µg/mL (≈ 0.334 µM)
MIC (Staphylococcus aureus 77): 0.063 µg/mL (≈ 0.162 µM)
MIC ([4]; read-out: Minimum Inhibitory Concentration: MIC, Escherichia coli TEM3 3455E, Table 31): 0.5 µg/mL (≈ 1.28 µM)
MIC (Escherichia coli 3190Y): 0.016 µg/mL (≈ 0.0411 µM)
MIC [12]: 32 µg/mL (≈ 82.2 µM)
MIC [13]: 0.13 µg/mL (≈ 0.334 µM)
MIC [14]: 0.25 µg/mL (≈ 0.642 µM)
MIC (Micrococcus luteus 9341): 0.5 µg/mL (≈ 1.28 µM)
MIC [15]: 0.063 µg/mL (≈ 0.162 µM)
MIC [16]: 0.063 µg/mL (≈ 0.162 µM)
MIC ([5]; Pseudomonas aeruginosa 10145, Table 31): 2 µg/mL (≈ 5.14 µM)
MIC [6]: 0.031 µg/mL (≈ 0.0796 µM)
MIC (Escherichia coli 10536): 0.031 µg/mL (≈ 0.0796 µM)
MIC (Bacillus subtilis 6633): 0.031 µg/mL (≈ 0.0796 µM)
MIC (Enterobacter cloacae P99): 0.031 µg/mL (≈ 0.0796 µM)
MIC [17]: 16 µg/mL (≈ 41.1 µM)
MIC [7]: 32 µg/mL (≈ 82.2 µM)
MIC (Seratis marsecence 1826E): 0.5 µg/mL (≈ 1.28 µM)
MIC (Escherichia coli 851E): 0.063 µg/mL (≈ 0.162 µM)
MIC [18]: 1 µg/mL (≈ 2.57 µM)
MIC [19]: 0.13 µg/mL (≈ 0.334 µM)
MIC [8]: 0.25 µg/mL (≈ 0.642 µM)
MIC [20]: 0.5 µg/mL (≈ 1.28 µM)
MIC (Proteus vulgaris 6059): 1 µg/mL (≈ 2.57 µM)
MIC [21]: 0.25 µg/mL (≈ 0.642 µM)

CON=C1CN(c2nc3c(cc2F)c(=O)c(C(=O)O)cn3C2CC2)CC1CN (stereo not shown) [Sulfurate]
Water Solubility ([22]; pH 2): 8.9
Water Solubility ([22]; pH 7): 11.4

CON=C1CN(c2nc3c(cc2F)c(=O)c(C(=O)O)cn3C2CC2)CC1CN (stereo not shown) [Tartarate]
solubility (physchem; pH 2): 15.4 mg/mL (≈ 39500 µM)
solubility (physchem; pH 7): 6.7 mg/mL (≈ 17200 µM)

CON=C1CN(c2nc3c(cc2F)c(=O)c(C(=O)O)cn3C2CC2)CC1CN (stereo not shown) [free form, 7-(4-aminomethyl-3-methyloxyiminopyrrolidin-1-yl)-1-cyclopropyl-6-fluoro-4-oxo-1,4-dihydro-1,8-naphthyridine-3-carboxylic acid]
antibacterial activity (test strains): excellent antibacterial activity
Water Solubility ([22]; pH 2): 14.6
Water Solubility ([22]; pH 7): 0.007
